Results as given in patent EP4140481A1, “PROTEIN-OLIGOMER BINDING AGENTS AND THERAPEUTIC USES THEREOF” (Galyan Bio, Inc., priority 2021, dated 2023).
“And” between values parts separate entries of the source, which are not always exact repeats. Equal values may be shown once.

Assays:
[1] = biological target: Htt Exon-1 Q16 (Homo sapiens, UniProt P42858, DEL34-38); test: Dynamic Light Scattering (DLS), induced aggregation; assay type: biochemical
Protocol: (§1) Proteins were ultracentrifuged with 50,000 rpm (rounds per minute) for one hour at 2 °C. The supernatant was used for DLS measurements. DLS measurements were conducted with Malvern Zetasizer Nano (Malvern Panalytical Ltd, United Kingdom).
(§2) Futher experiments were made with Htt Exon-1 Q16 and Q46. Table 28 Size Distribution (Volume and Number) of Q16 under various conditions

[2] = biological target: T1, Htt Exon-1 Q46 (Homo sapiens, UniProt P42858, INS38QQQQQQQQQQQQQQQQQQQQQQQQQ); test: as above; assay type: biochemical
T1 construct: Futher experiments were made with Htt Exon-1 Q16 and Q46
T1 sequence (P42858 with tags, fused parts or gaps with the stated changes): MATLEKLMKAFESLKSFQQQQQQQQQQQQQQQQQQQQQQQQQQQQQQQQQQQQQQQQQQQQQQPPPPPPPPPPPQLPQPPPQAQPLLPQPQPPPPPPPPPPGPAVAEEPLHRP
Protocol: as §1, §2

[3] = tested on: zebrafish larvae; test: Motility Zebrafish Model (MPP+ exposure, photomotor assay and sleep)
Protocol: Six groups were included in each experiment. Immediately after spawning, 40 embryos per group were allocated to a 24-well plate and system water (solvent) was added to all wells. […] MPP+ was prepared immediately prior to incubation and solutions were changed daily. At 120 hpf, drug treatment and MPP+ exposure was ceased and a 3X wash was performed with system water. Larvae were then relocated to 96-well plates for behavioral recording and placed in a separate recording room for 24-hour acclimation. Prior to behavioral recording, wells were fully replenished system water.
Naive group was exposed to solvent only. Vehicle group was exposed to solvent and vehicle corresponding to the vehicle of 20 µM drug solution (0.02% DMSO). MPP+ positive control was exposed to solvent and 500 µM MPP+.
Behavioral data was recorded from 1 p.m. on 6 dpf until shortly after wakening on 7 dpf. The recording consisted of a photomotor assay in which lights switch off and on in 30-minute intervals between 1 p.m. and 6 p.m., producing a consistent photomotor response. […] Upon lights being turned on again, the larvae cease movement followed by a return to baseline. This cycle is repeated five times. Following the last lights-off phase, constant illumination is presented until lights turn off at 10 p.m. for the night. Lights turn on again at 8 a.m. the following day.
Average movement frequency was measured during 30-minute lights-on phases of photomotor assay.
Distance moved (mm) was defined as the average distance moved during 30-minute lights-on phases of photomotor assay.
All data are presented as mean ± standard error of the mean (sem). For analysis of differences between groups, a Kruskal-Wallis one-way ANOVA with Dunn's multiple comparison post hoc test was performed. P < 0.05 was considered statistically significant.

[4] = tested on: R6/2 mice; test: Rotarod in R6/2 mice of Huntington's disease; assay type: in vivo; settings: for rotarod performance: 33 mg/kg i.p. QD
Protocol: Methods ― Total of 20 female and male R6/2 mice and 10 female and male wild-type littermate control mice (WT) were used in the study. The mice were genotyped and the R6/2 mice were divided into different treatment groups based on their litter and baseline body weight. The treatment with Vehicle or Compound 22 (33 mg/kg; 5 ml/kg, i.p. QD) was started at 4 weeks of age after the baseline behavioral tests (Figure 6). Body weights were measured at 3 weeks of age and twice a week until the end of the study.
The experimental groups were: • Group 1) 10 wild-type mice (mixed gender) treated with Vehicle (5 ml/kg, i.p., QD) starting at 4 weeks of age • Group 2) 10 R6/2 mice (mixed gender) treated with Vehicle (5 ml/kg, i.p., QD) starting at 4 weeks of age • Group 3) 10 R6/2 mice (mixed gender) treated with Compound 22 (33 mg/kg; 5 ml/kg, i.p. QD) starting at 4 weeks of age
Compound Delivery and Dosing - Treatment with Compound 22 (33 mg/kg; 5 ml/kg, i.p. QD) or Vehicle was started at age week 4 and continued until the 12 weeks of age. The test articles were handled and stored and the dose formulations were prepared according to detailed instructions provided by the Sponsor.
Rotarod - The Rotarod test was perfomed at 4 (pre-treatment baseline), 6, 8 and 10 weeks of age. Each testing day included a training trial of 5 min at 4 RPM on the Rotarod apparatus (AccuScan Instruments, Columbus, USA). 30 minutes later, the animals were tested for 3 consecutive accelerating trials of 6 min with the speed changing from 0 to 40 RPM over 360 seconds and with an inter-trial interval of at least 30 min. The latency to fall from the rod was recorded. Mice remaining on the rod for more than 360 s were removed and their time scored as 360 sec.
[…] littermate control mice (F1 generation) were bred by Charles River Laboratories, Sulzfeld, Germany by mating (F0 generation) WT males (C57BL/6J; systematically re-infused with pedigreed JAX mice, stock 000664) with ovarian transferred (OT) TG females (JAX, stock 006494). After weaning mice were sent from Germany to Charles River, Kuopio, Finland at an age of 3 weeks. Following genotyping and acclimation, the mice were enrolled in the study.

[5] = by number, equimolar Compound 4
[6] = by volume, equimolar Compound 4
[7] = by intensity, equimolar Compound 4

Sequence of Htt Exon-1 Q16 (P42858 with tags, fused parts or gaps DEL34-38): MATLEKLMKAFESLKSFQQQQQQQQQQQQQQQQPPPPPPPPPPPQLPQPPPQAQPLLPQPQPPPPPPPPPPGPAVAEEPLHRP

## CCc1c(C)[nH]c2ccc(C(=O)NCCN(CC)CC)cc12 [Compound 4, N-(2-(diethylamino)ethyl)-3-ethyl-2-methyl-1H-indole-5-carboxamide]
[1]; [5]
  % Number, Peak 1: 100%
  Size, Peak 1: 6.0 nm and 6.063 nm
[1]; [6]
  % Volume, Peak 1: 0.2%
  % Volume, Peak 2: 99.8%
  Size, Peak 1: 93.12 nm
  Size, Peak 2: 6.949 nm
[1]; exposed to Compound 4
  assembly state of Q16: mainly monomeric
[2]; [7]
  % Intensity, Peak 1: 83.1%
  % Intensity, Peak 2: 12.9%
  % Intensity, Peak 3: 4,1%
  Size, Peak 1: 178.7 nm
  Size, Peak 2: 9.275 nm
  Size, Peak 3: 3917 nm
[2]; exposed to Compound 4
  assembly state of Q46: assembles as mostly aggregates and larger aggregates
[3]; 1 µM Compound 4 with 500 µM MPP+ (naïve 40.8)
  movement frequency: 21.0 movement bouts in 30 minutes
[3]; 1, 10 and 20 µM co-incubated with 500 µM MPP+, compared to MPP+
  distance moved: no significant difference
[3]; co-incubation with MPP+, between groups
  sleep parameters (sleep fragmentation, sleep ratio, velocity, wake bout duration, sleep bout duration): No statistically significant difference
[3]; concentrations ~10 µM and ~1 µM
  overall movement during assessment of neuroprotection: subtle increase in overall movement
[3]; drug treatment groups compared to MPP+
  movement frequency: no significant difference

## Cc1[nH]c2ccc(C(=O)NCCN(C(C)C)C(C)C)cc2c1C [Compound 22]
[4]; female R6/2 mice at 10 weeks of age, normalized to 4-week baseline, versus vehicle
  rotarod performance: significantly improved
[4]; pooled genders or males, versus vehicle treated R6/2 mice
  rotarod performance: no significant differences
[4]; 33 mg/kg intraperitoneal once daily, female R6/2 mice at 10 weeks of age (vehicle 55.7 s)
  mean latency to fall: 108.3 s
[4]; in comparison to untreated model mice, 10 weeks of age
  improvement of latency to fall: 94%
